Numbers after ± are expanded uncertainties.
What was measured:
[1] = refractive index (other wavelength) (dimensionless); conditions: 101 kPa, Liquid, Wavelength=632.8 nm, Standard Abbe refractometry
[2] = refractive index (other wavelength) (dimensionless); xn = mol fraction of the nth substance listed; conditions: 101 kPa, Liquid, Wavelength=632.8 nm, Standard Abbe refractometry

COC(=O)OC [dimethyl carbonate]
refractive index ([1]; 277.78 K): 1.3747 ± 0.0004 | refractive index ([1]; 278.13 K): 1.3745 ± 0.0004 | refractive index ([1]; 279.18 K): 1.374 ± 0.0004 | refractive index ([1]; 280.25 K): 1.3735 ± 0.0004 | refractive index ([1]; 280.74 K): 1.3733 ± 0.0004 | refractive index ([1]; 281.69 K): 1.3728 ± 0.0004 | refractive index ([1]; 293.19 K): 1.3676 ± 0.0004 | refractive index ([1]; 294.27 K): 1.3671 ± 0.0004 | refractive index ([1]; 295.3 K): 1.3666 ± 0.0004 | refractive index ([1]; 296.34 K): 1.3661 ± 0.0004 | refractive index ([1]; 297.38 K): 1.3656 ± 0.0004 | refractive index ([1]; 298.4 K): 1.3651 ± 0.0004 | refractive index ([1]; 299.48 K): 1.3647 ± 0.0004

COC(=O)OC [dimethyl carbonate] + CCCCCCCCC
refractive index ([2]; 281.69 K, x1 = 1): 1.3728 ± 0.0004

CCCCCCCCCCCC [dodecane]
refractive index ([1]; 293.28 K): 1.4203 ± 0.0004 | refractive index ([1]; 294.33 K): 1.4198 ± 0.0004 | refractive index ([1]; 295.37 K): 1.4194 ± 0.0004 | refractive index ([1]; 296.54 K): 1.4189 ± 0.0004 | refractive index ([1]; 297.58 K): 1.4184 ± 0.0004 | refractive index ([1]; 298.65 K): 1.418 ± 0.0004 | refractive index ([1]; 299.72 K): 1.4175 ± 0.0004

CCCCCCCCCCCC [dodecane] + COC(=O)OC
refractive index ([2]; 299.73 K, x2 = 0.103): 1.414 ± 0.0004 | refractive index ([2]; 299.73 K, x2 = 0.204): 1.4106 ± 0.0004 | refractive index ([2]; 299.73 K, x2 = 0.299): 1.4071 ± 0.0004 | refractive index ([2]; 299.73 K, x2 = 0.409): 1.4028 ± 0.0004 | refractive index ([2]; 299.73 K, x2 = 0.512): 1.3983 ± 0.0004 | refractive index ([2]; 299.73 K, x2 = 0.611): 1.3934 ± 0.0004 | refractive index ([2]; 299.73 K, x2 = 0.713): 1.3875 ± 0.0004 | refractive index ([2]; 299.73 K, x2 = 0.791): 1.3823 ± 0.0004 | refractive index ([2]; 299.73 K, x2 = 0.899): 1.3739 ± 0.0004

CCCCCCCCC [nonane]
refractive index ([1]; 277.15 K): 1.4116 ± 0.0004 | refractive index ([1]; 278.19 K): 1.4111 ± 0.0004 | refractive index ([1]; 279.2 K): 1.4106 ± 0.0004 | refractive index ([1]; 279.71 K): 1.4104 ± 0.0004 | refractive index ([1]; 280.28 K): 1.4101 ± 0.0004 | refractive index ([1]; 281.69 K): 1.4095 ± 0.0004

CCCCCCCCC [nonane] + COC(=O)OC
refractive index ([2]; 281.69 K, x2 = 0): 1.4095 ± 0.0004 | refractive index ([2]; 281.69 K, x2 = 0.105): 1.4061 ± 0.0004 | refractive index ([2]; 281.69 K, x2 = 0.201): 1.4031 ± 0.0004 | refractive index ([2]; 281.69 K, x2 = 0.305): 1.3999 ± 0.0004 | refractive index ([2]; 281.69 K, x2 = 0.405): 1.3968 ± 0.0004 | refractive index ([2]; 281.69 K, x2 = 0.505): 1.3936 ± 0.0004 | refractive index ([2]; 281.69 K, x2 = 0.596): 1.3905 ± 0.0004 | refractive index ([2]; 281.69 K, x2 = 0.706): 1.3863 ± 0.0004 | refractive index ([2]; 281.69 K, x2 = 0.8): 1.3822 ± 0.0004 | refractive index ([2]; 281.69 K, x2 = 0.888): 1.3781 ± 0.0004

From the NIST ThermoML archive (doi:10.1021/je101317k)
